From patent US6461997B1, “Triazole sulfones having herbicidal activity” (Monsanto Technology LLC, priority 1999, dated 2002)

These molecules were tested on PANDI (fall panicum) (assay: Pre-emergence herbicidal activity, warm season). Conditions: GR80 = lowest tested rate (300, 100, 30, 10 g/ha) with 80% or greater inhibition; approx. 14 days after treating; 30/21° C.
Format: in vivo, Panicum dichotomiflorum
How it was run: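 Seeds sown in sterilised fertilised topsoil received surface-applied compound in 50:50 acetone/water, typically at 300, 100, 30 and 10 g/ha, then greenhouse-grown at 30/21° C (warm-season species) or 18/13° C (cool-season species). Percent inhibition versus untreated plants was scored at about 14 days, giving GR80; an asterisk marks activity short of 80% at the top rate.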

SMILES	Pre-emergence activity (GR80) PANDI [g/ha]
CCN(CC)C(=O)n1cnc(S(=O)(=O)C(F)(F)SCC(=O)OC)n1 [Example 11]	300

What follows are molecules tested on BROTE (downy brome) (assay: Post-emergence herbicidal activity, cool season). Conditions: abraded plants sprayed at 300, 100, 30 and 10 g/ha; about 14 days after treatment.
Format: in vivo, Bromus tectorum
How it was run: (§1)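 GR80 values derive from percent growth inhibition scored approximately 14 days post-spray against abraded, unsprayed controls under an 18/13 °C regime. Foliar application to sandblast-abraded plants used rates of 300, 100, 30 and 10 g/ha in 50:50 acetone/water at 3,100 l/ha.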

SMILES	Post-emergence activity GR80, BROTE
CCN(CC)C(=O)n1cnc(S(=O)(=O)C(F)(F)SCC(=O)OC)n1 [Example 11]	[empty]

These molecules were tested on BROTE (downy brome) (assay: Pre-plant incorporated (PPI) herbicidal activity, cool season). Conditions: pre-plant incorporated; lowest tested rate with 80% or greater inhibition; about 14 days.
Format: in vivo, Bromus tectorum
Protocol: (§2) In another set of tests, the pre-plant incorporated (PPI) activity of compounds of this invention was evaluated on the same species as for the pre-emergence tests described above. In the PPI tests the following procedure, designed to simulate PPI application, was used.
(§3) A pre-prepared topsoil mixture (described above) was placed in a pot and compacted to a depth of 1.0 to 1.25 cm from the top of the pot. Seeds of each of several monocotyledonous and dicotyledonous annual plant species were placed on top of the soil. A sufficient quantity of soil to cover the seeds and level fill the pot was weighed into an open container. A known amount of the test compound was dissolved or suspended in an organic solvent and applied by spraying to this cover soil. The cover soil was thoroughly mixed to distribute the test compound throughout the cover soil, and was then applied as a cover layer over the seeds. Untreated soil was used as a cover layer for control pots. After treatment the plants were placed in a greenhouse where they received 0.64 cm of overhead irrigation. All subsequent watering consisted of a light overhead mist and/or subirrigation as needed for germination and growth. Tables 9 and 10 below relate to warm season plant species which were placed after pre-emergence treatment in a greenhouse with a 30/21° C. day/night temperature regime. Tables 11 and 12 below relates to cool season plant species placed after pre-emergence treatment in a greenhouse or growth chamber with an 18/13° C. day/night temperature regime. Only the compounds of Examples 1, 6, 8, 11, 13 and 15-20 were included in PPI tests.
(§4) Approximately 14 days after planting and treating, the plants were observed and herbicidal efficacy recorded as percent inhibition by comparison with untreated plants.

SMILES	PPI activity GR80, BROTE
CCN(CC)C(=O)n1cnc(S(=O)(=O)C(F)(F)SCC(=O)OC)n1 [Example 11]	[empty]

Same assay, conditions: weed, PPI application, 10 g/ha

SMILES	Percent inhibition BROTE [%]
CCN(CC)C(=O)n1cnc(S(=O)(=O)C(F)(F)SCC(=O)OC)n1 [Example 11]	0

Same assay, conditions: weed, PPI application, 30 g/ha

SMILES	Percent inhibition BROTE [%]
CCN(CC)C(=O)n1cnc(S(=O)(=O)C(F)(F)SCC(=O)OC)n1 [Example 11]	0

Same assay, conditions: weed, PPI application, 100 g/ha

SMILES	Percent inhibition BROTE [%]
CCN(CC)C(=O)n1cnc(S(=O)(=O)C(F)(F)SCC(=O)OC)n1 [Example 11]	0

Same assay, conditions: weed, PPI application, 300 g/ha

SMILES	Percent inhibition BROTE [%]
CCN(CC)C(=O)n1cnc(S(=O)(=O)C(F)(F)SCC(=O)OC)n1 [Example 11]	0

Same assay, conditions: weed, PPI application, 900 g/ha

SMILES	Percent inhibition BROTE [%]
CCN(CC)C(=O)n1cnc(S(=O)(=O)C(F)(F)SCC(=O)OC)n1 [Example 11]	20

These molecules were tested on STEME (common chickweed) in the same assay as above. Conditions: pre-plant incorporated; lowest tested rate with 80% or greater inhibition; about 14 days.
Format: in vivo, Stellaria media
Protocol: as §2, §3, §4

SMILES	PPI activity GR80, STEME [g/ha]
CCN(CC)C(=O)n1cnc(S(=O)(=O)C(F)(F)SCC(=O)OC)n1 [Example 11]	300

Same assay, conditions: weed, PPI application, 10 g/ha

SMILES	Percent inhibition STEME [%]
CCN(CC)C(=O)n1cnc(S(=O)(=O)C(F)(F)SCC(=O)OC)n1 [Example 11]	0

Same assay, conditions: weed, PPI application, 30 g/ha

SMILES	Percent inhibition STEME [%]
CCN(CC)C(=O)n1cnc(S(=O)(=O)C(F)(F)SCC(=O)OC)n1 [Example 11]	0

Same assay, conditions: weed, PPI application, 100 g/ha

SMILES	Percent inhibition STEME [%]
CCN(CC)C(=O)n1cnc(S(=O)(=O)C(F)(F)SCC(=O)OC)n1 [Example 11]	0

Same assay, conditions: weed, PPI application, 300 g/ha

SMILES	Percent inhibition STEME [%]
CCN(CC)C(=O)n1cnc(S(=O)(=O)C(F)(F)SCC(=O)OC)n1 [Example 11]	0

Same assay, conditions: weed, PPI application, 900 g/ha

SMILES	Percent inhibition STEME [%]
CCN(CC)C(=O)n1cnc(S(=O)(=O)C(F)(F)SCC(=O)OC)n1 [Example 11]	30

Each molecule was assayed on ALOMY (blackgrass) (assay: Post-emergence herbicidal activity, cool season). Conditions: abraded plants sprayed at 300, 100, 30 and 10 g/ha; about 14 days after treatment.
Format: in vivo, Alopecurus myosuroides
How it was run: as §1

SMILES	Post-emergence activity GR80, ALOMY
CCN(CC)C(=O)n1cnc(S(=O)(=O)C(F)(F)SCC(=O)OC)n1 [Example 11]	[empty]

Each molecule was assayed on SETFA (giant foxtail) (assay: Pre-plant incorporated (PPI) herbicidal activity, warm season). Conditions: PPI application, 10 g/ha.
Format: in vivo, Setaria faberi
Protocol: as §2, §3, §4

SMILES	Percent inhibition SETFA [%]
CCN(CC)C(=O)n1cnc(S(=O)(=O)C(F)(F)SCC(=O)OC)n1 [Example 11]	0

Same assay, conditions: PPI application, 30 g/ha

SMILES	Percent inhibition SETFA [%]
CCN(CC)C(=O)n1cnc(S(=O)(=O)C(F)(F)SCC(=O)OC)n1 [Example 11]	0

Same assay, conditions: PPI application, 100 g/ha

SMILES	Percent inhibition SETFA [%]
CCN(CC)C(=O)n1cnc(S(=O)(=O)C(F)(F)SCC(=O)OC)n1 [Example 11]	90

Same assay, conditions: PPI application, 300 g/ha

SMILES	Percent inhibition SETFA [%]
CCN(CC)C(=O)n1cnc(S(=O)(=O)C(F)(F)SCC(=O)OC)n1 [Example 11]	60

Same assay, conditions: PPI application, 900 g/ha

SMILES	Percent inhibition SETFA [%]
CCN(CC)C(=O)n1cnc(S(=O)(=O)C(F)(F)SCC(=O)OC)n1 [Example 11]	100

Same assay, conditions: pre-plant incorporated; lowest tested rate with 80% or greater inhibition; about 14 days

SMILES	PPI activity GR80, SETFA [g/ha]
CCN(CC)C(=O)n1cnc(S(=O)(=O)C(F)(F)SCC(=O)OC)n1 [Example 11]	300

What follows are molecules tested on SETVI (green foxtail) (assay: Pre-plant incorporated (PPI) herbicidal activity, cool season). Conditions: pre-plant incorporated; lowest tested rate with 80% or greater inhibition; about 14 days.
Format: in vivo, Setaria viridis
Protocol: as §2, §3, §4

SMILES	PPI activity GR80, SETVI [g/ha]
CCN(CC)C(=O)n1cnc(S(=O)(=O)C(F)(F)SCC(=O)OC)n1 [Example 11]	300

Same assay, conditions: weed, PPI application, 10 g/ha

SMILES	Percent inhibition SETVI [%]
CCN(CC)C(=O)n1cnc(S(=O)(=O)C(F)(F)SCC(=O)OC)n1 [Example 11]	80

Same assay, conditions: weed, PPI application, 30 g/ha

SMILES	Percent inhibition SETVI [%]
CCN(CC)C(=O)n1cnc(S(=O)(=O)C(F)(F)SCC(=O)OC)n1 [Example 11]	90

Same assay, conditions: weed, PPI application, 100 g/ha

SMILES	Percent inhibition SETVI [%]
CCN(CC)C(=O)n1cnc(S(=O)(=O)C(F)(F)SCC(=O)OC)n1 [Example 11]	99

Same assay, conditions: weed, PPI application, 300 g/ha

SMILES	Percent inhibition SETVI [%]
CCN(CC)C(=O)n1cnc(S(=O)(=O)C(F)(F)SCC(=O)OC)n1 [Example 11]	95

Same assay, conditions: weed, PPI application, 900 g/ha

SMILES	Percent inhibition SETVI [%]
CCN(CC)C(=O)n1cnc(S(=O)(=O)C(F)(F)SCC(=O)OC)n1 [Example 11]	100
